Test results from patent publication US20130266676A1, “TERMINALIA CHEBULA COMPOSITIONS AND METHOD OF EXTRACTING SAME” (NATREON, INC., priority 2012, published 2013).

Legend:
HSV-1 = conditions: noncytotoxic doses, A549 human lung cells; cited from earlier work
[1] = test system: stimulated human peripheral blood lymphocytes; conditions: concentrations ten times above maximal effective concentration; cited from earlier work
HIV rgp120 to CD4 = HIV rgp120 to CD4 (UniProt P01730+P04578); conditions: cited from earlier work
HepG2 cells = conditions: cited from earlier work
[2] = Thermal stability during aqueous extraction at 80±5° C. (HPLC); format: physicochemical; conditions: different time points
Protocol: In another experiment, fruit pericarp portions of T. Chebula (50 g) were pulverized and the resulting powder was extracted with distilled water (300 ml) for 12 hours, with a continuous stirring (400 RPM), separately at different temperatures 30±5° C., 40±5° C., 60±5° C. and 80±5° C. using a pressure reactor. Aliquots of the samples were withdrawn at different time intervals during extraction, spray dried and analyzed for bioactives (Chebulagic acid, Chebulinic acid and other LMwHTs) by HPLC (as discussed above). The results are incorporated in Tables 3-6. As used herein, “0 hour” extraction refers to “instant extraction,” which for the purpose of this disclosure means distilled water was added to the pulverized powder on a thermostatic water bath, stirred for 5 minutes and an aliquot of the sample withdrawn and analyzed.

LPS-stimulated RAW 264.7 = conditions: cited from earlier work
melanin = conditions: compared with ascorbic acid, butylated hydroxyl toluene, alpha-tocopherol, arbutin and kojic acid; cited from earlier work
COX-1 = conditions: cited from earlier work
COX-2 = molecular target: T1, COX-2 (Homo sapiens, UniProt P35354); conditions: cited from earlier work
T1 sequence (P35354 18-604): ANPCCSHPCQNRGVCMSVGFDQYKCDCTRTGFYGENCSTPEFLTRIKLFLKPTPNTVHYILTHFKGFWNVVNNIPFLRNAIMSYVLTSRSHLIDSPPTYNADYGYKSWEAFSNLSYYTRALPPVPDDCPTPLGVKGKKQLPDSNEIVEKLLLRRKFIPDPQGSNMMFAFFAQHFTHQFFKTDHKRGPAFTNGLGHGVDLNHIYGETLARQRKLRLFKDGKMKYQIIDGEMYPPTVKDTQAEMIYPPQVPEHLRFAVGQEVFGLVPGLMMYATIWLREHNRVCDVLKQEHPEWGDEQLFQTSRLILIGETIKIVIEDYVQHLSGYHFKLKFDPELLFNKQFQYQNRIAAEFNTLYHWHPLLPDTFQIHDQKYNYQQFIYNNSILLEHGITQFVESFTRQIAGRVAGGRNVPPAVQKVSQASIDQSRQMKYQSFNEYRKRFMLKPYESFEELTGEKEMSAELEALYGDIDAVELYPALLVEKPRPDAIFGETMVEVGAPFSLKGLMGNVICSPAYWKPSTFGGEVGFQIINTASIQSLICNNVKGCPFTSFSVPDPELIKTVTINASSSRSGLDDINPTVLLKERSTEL

[3] = test system: HCT-15, COLO-205, MDA-MB-231, DU-145 and K562 cell lines; conditions: cited from earlier work
Smad pathway = conditions: through inhibition of the Smad pathway; cited from earlier work
5-LOX = conditions: cited from earlier work
[4] = compared with ascorbic acid, butylated hydroxyl toluene, alpha-tocopherol, arbutin and kojic acid; cited from earlier work
PRMI-7951 melanoma cells = conditions: cited from earlier work
[5] = test system: collagen-induced arthritis; conditions: mice; cited from earlier work
[6] = test system: MCF-7, S115, HOS-1, PC-3 and PNT1A cell lines; conditions: cited from earlier work
[7] = rats; cited from earlier work
K562 cells = conditions: concentration-dependent; cited from earlier work
[8] = test system: human cervical carcinoma HeLa cells; conditions: cited from earlier work
[9] = test system: cytotoxic T-lymphocyte (CTL)-mediated cytotoxicity; conditions: cited from earlier work

Question: With `O=C1O[C@H]2[C@@H]3OC(=O)c4cc(O)c(O)c(O)c4-c4c(O)c(O)c5oc(=O)c6c(c(O)c(O)c7oc(=O)c4c5c76)-c4c(cc(O)c(O)c4O)C(=O)OC[C@H]3OC(O)[C@@H]2OC(=O)c2cc(O)c(O)c(O)c2-c2c1cc(O)c(O)c2O` (mixture of isomers) [punicalagin] as the compound, how does the “inhibition of HSV-1 entry” value (HSV-1) read?
Answer: Its value is “inhibit HSV-1 entry”.

Question: For `O=C1OC[C@H]2OC(O)[C@H](O)[C@@H](O)[C@@H]2OC(=O)c2cc(O)c(O)c(O)c2-c2c(O)c(O)c3oc(=O)c4c(c(O)c(O)c5oc(=O)c2c3c54)-c2c1cc(O)c(O)c2O` (mixture of isomers) [punicalin], which toxicity to lymphocytes [1] is on record?
Answer: Its toxicity to lymphocytes is “not toxic”.

Question: What about the “blocking of binding of HIV rgp120 to CD4” value (HIV rgp120 to CD4) of the same compound?
Answer: The value was “block the binding”.

Question: Which results are given for `O=C(O)CC1C(=O)OC2C3COC(=O)c4cc(O)c(O)c(O)c4-c4c(cc(O)c(O)c4O)C(=O)OC2C(OC(=O)c2cc(O)c(O)c4c2C1C(O)C(=O)O4)C(OC(=O)c1cc(O)c(O)c(O)c1)O3` [Chebulagic acid, beta-1-O-galloyl-2,4-chebuloyl-3,6-(R)-hexahydroxydiphenoyl-D-glucose]?
Answer: enhancement of cytotoxicity of doxorubicin (HepG2 cells; HepG2 cells): 20 fold; interaction with doxorubicin by Combination Index (CI), cell growth inhibition (HepG2 cells): strong synergistic interaction; thermal stability [2]: thermolabile; anti-inflammatory effects (LPS-stimulated RAW 264.7): potent anti-inflammatory effects; melanin inhibitory activity versus reference agents (melanin): stronger; IC50 (COX-1): 15000 ± 288 nM; IC50 (COX-2): 920 ± 11 nM; anti-proliferative activity [3]: anti-proliferative activity; antifibrotic activity (Smad pathway): antifibrotic activity; inhibition of HSV-1 entry (HSV-1): inhibit HSV-1 entry; IC50 (5-LOX): 2100 ± 57 nM; DPPH radical scavenging activity versus reference antioxidants [4]: stronger; cytotoxicity (PRMI-7951 melanoma cells): cytotoxic properties; onset and progression of collagen-induced arthritis [5]: suppress the onset and progression

Question: With `O=C(O)CC1C(=O)OC2C(COC(=O)c3cc(O)c(O)c(O)c3)OC(OC(=O)c3cc(O)c(O)c(O)c3)C(OC(=O)c3cc(O)c(O)c4c3C1C(O)C(=O)O4)C2OC(=O)c1cc(O)c(O)c(O)c1` [Chebulinic acid, 1,3,6-tri-O-galloyl-2,4-chebuloyl-beta-D-glucose] as the compound, how does the toxicity to lymphocytes [1] read?
Answer: Its toxicity to lymphocytes is “not toxic”.

Question: And the thermal stability [2]?
Answer: Its thermal stability is “thermolabile”.

Question: And the “blocking of binding of HIV rgp120 to CD4” value (HIV rgp120 to CD4)?
Answer: The value was “block the binding”.

Question: What about the growth inhibition [6] of the same compound?
Answer: The growth inhibition was “growth inhibitory”.

Question: And the “melanin inhibitory activity versus reference agents” value (melanin)?
Answer: The value was “stronger”.

Question: What about the antifibrotic activity (Smad pathway) of the same compound?
Answer: Its antifibrotic activity is “antifibrotic activity”.

Question: What about the “DPPH radical scavenging activity versus reference antioxidants” value [4] of the same compound?
Answer: Its value is “stronger”.

Question: And the blood pressure effect [7]?
Answer: The blood pressure effect was “blood pressure lowering effect”.

Question: And the hemoglobin synthesis (K562 cells)?
Answer: The hemoglobin synthesis was “inhibited the hemoglobin synthesis”.

Question: What about the anti-tumor properties [8] of the same compound?
Answer: The anti-tumor properties was “anti-tumor properties”.

Question: Which anti-tumor properties [8] does the source give for `O=C(O[C@H]1[C@@H]2OC(=O)c3cc(O)c(O)c(O)c3-c3c(cc(O)c(O)c3O)C(=O)OC[C@H]2OC(O)[C@@H]1OC(=O)c1cc(O)c(O)c(O)c1)c1cc(O)c(O)c(O)c1` (stereo partly shown) [Tellimagrandin I] here?
Answer: The anti-tumor properties was “anti-tumor properties”.

Question: Which “blocking of CTL-mediated cytotoxicity” value [9] does the source give for `O=C(O)C[C@H](C(=O)O)[C@H]1c2c(cc(O)c(O)c2O)C(=O)O[C@@H]1C(=O)O` [chebulic acid] here?
Answer: The value was “blocked”.

Question: For `O=c1oc2c(O)c(O)cc3c(=O)oc4c(O)c(O)cc1c4c23` [ellagic acid], which growth inhibition [6] is on record?
Answer: Its growth inhibition is “growth inhibitory”.

Question: For `O=C(OC[C@H]1O[C@@H](OC(=O)c2cc(O)c(O)c(OC(=O)c3cc(O)c(O)c(O)c3)c2)[C@H](OC(=O)c2cc(O)c(O)c(OC(=O)c3cc(O)c(O)c(O)c3)c2)[C@@H](OC(=O)c2cc(O)c(O)c(OC(=O)c3cc(O)c(O)c(O)c3)c2)[C@@H]1OC(=O)c1cc(O)c(O)c(OC(=O)c2cc(O)c(O)c(O)c2)c1)c1cc(O)c(O)c(OC(=O)c2cc(O)c(O)c(O)c2)c1` [tannic acid], which growth inhibition [6] is on record?
Answer: Its growth inhibition is “growth inhibitory”.
